Measurements taken from patent publication US20090221513A1, “Treatment of Neurodegenerative Disorders” (The Open University, priority 2005, published 2009).
“Also recorded” adds a separate entry of the source. Where a SMILES comes first, the peptide text is derived from it. [ ]: non-standard residue; d: D form. ξ: configuration not given here. ξR = N=C(N)NCCCC(N)C(=O)O; ξE = NC(CCC(=O)O)C(=O)O

Columns and labels:
[1] = tested on: chicks trained on a weak training task; conditions: as described in WO02/083729; cited from earlier work
[2] = tested on: chicks with MK801-induced amnesia; assay: passive avoidance task, MK801-induced amnesia in chicks; assay type: in vivo, chick; conditions: 8 μg/hemisphere ic pre-training; MK801 0.020 mg/100 gr ip pre-training; tested 3 hr later
Procedure: FIG. 8 Effect of Ac-rER on MK801-induced amnesia. Chicks were injected ic with 8 μg/hemisphere of Ac-rER 60 min pre-training followed by ip injection of MK80 1 (0.020 mg/100 gr) pre-training. Controls were injected with saline. Chicks were tested 3 hr later. […] Each chick was trained and tested only once and differences between groups were tested for statistical significance by G-test (Sokal, and Rohlf, 1995).
Commercially obtained Ross Chunky eggs were incubated and hatched in brooders and held until 16±6 hours old. Chicks were placed in pairs in small aluminium pens. Following an equilibration period of an hour, the chicks were pretrained and trained essentially as described by Lossner and Rose (J. Neurochem. 41, 1357-1363 (1983), the contents of which are incorporated herein by reference). Pretraining involved three 10 s presentations of a small (2 mm diameter) white bead, at approximately 5 minute intervals. […] Two training techniques were used: “strong” and “weak” training. In both, 5 to 10 minutes after the last pre-training trial, chicks were trained by a 10 s presentation of a 4 mm diameter chrome bead, which had been dipped in the bitter-tasting methylanthranilate. […] Recall is calculated as a percent avoidance score (percentage of chicks which avoid the chrome bead) and as a discrimination score (percentage of chicks which avoid the chrome but peck at the white bead). […]

[3] = tested on: chicks trained on a weak training task; assay: one trial passive avoidance task, weak training (10% methylanthranilate), memory enhancement; assay type: in vivo, chick; conditions: for bio-activity as a cognitive enhancer: chick, D/L forms compared with RER; for memory retention (percent showing avoidance and discrimination), FIG. 1: weak aversive learning task, ic injection 60 min pre-training, saline control
Procedure: FIG. 1 The effect of different D/L forms of tripeptide as memory enhancers on weak memory. Chicks were injected ic with different D/L forms of tripeptide 60 min pre-training and tested 24 after. The control group received saline. […] Each chick was trained and tested only once and differences between groups were tested for statistical significance by G-test (Sokal, and Rohlf, 1995). Note that the G-test reflects group differences, and so there are no error bars on the figures.
FIG. 3 The effect of Ac-rER as memory enhancer in chicks trained on a weak training task (WT). Chicks were injected 2×ip injections, 1 mg/100 gr bw, 30 min and 6 hr pre-training and tested 24 hr later. The control groups received Ac-REr. […] Each chick was trained and tested only once and differences between groups were tested for statistical significance by G-test (Sokal, and Rohlf, 1995).
FIG. 5 Dose-dependence of the effect of Ac-rER in weak training. Chicks were injected ip with different doses of the Ac-rER 60 min pre-training and tested 24 after. The control group received saline. […] Each chick was trained and tested only once and differences between groups were tested for statistical significance by G-test (Sokal, and Rohlf, 1995).
FIG. 6 Stability of Ac-rER. Chicks were injected ip with 2 mg/100 g bw of Ac-rER 1, 2, 4, 6 and 12 hr before training and tested 24 hr later. The control group received saline. […] Each chick was trained and tested only once and differences between groups were tested for statistical significance by G-test (Sokal, and Rohlf, 1995). […]
Commercially obtained Ross Chunky eggs were incubated and hatched in brooders and held until 16±6 hours old. Chicks were placed in pairs in small aluminium pens. Following an equilibration period of an hour, the chicks were pretrained and trained essentially as described by Lossner and Rose (J. Neurochem. 41, 1357-1363 (1983), the contents of which are incorporated herein by reference). Pretraining involved three 10 s presentations of a small (2 mm diameter) white bead, at approximately 5 minute intervals. […] Two training techniques were used: “strong” and “weak” training. In both, 5 to 10 minutes after the last pre-training trial, chicks were trained by a 10 s presentation of a 4 mm diameter chrome bead, which had been dipped in the bitter-tasting methylanthranilate. Control chicks pecked at a water-coated or dry bead. In the “strong” version of the task, 100% methylanthranilate was used. In the “weak” version, 10% methylanthranilate was used. Chicks spontaneously pecked at the training or control beads within 20 s. Chicks that pecked at the bitter bead evinced a disgust reaction and would not normally peck at a similar, but dry bead for some hours subsequently. At various times following training chicks were tested, by offering them a dry 4 mm diameter chrome bead, followed 10 minutes later by a small (2 mm diameter) white bead, each for 20 to 30 s. Animals were tested by an experimenter blind as to which treatment each chick had received. Chicks are considered to remember the task if they avoid the chrome bead at test but peck at the white bead (discriminate), and to have forgotten it if they peck at both beads. Recall is calculated as a percent avoidance score (percentage of chicks which avoid the chrome bead) and as a discrimination score (percentage of chicks which avoid the chrome but peck at the white bead). […] Each chick was trained and tested only once and differences between groups tested for statistical significance by g-test described by Sokal and Rohlf (biometry: the Principles and Practice of Statistics in Biological Research (2nd edition), W H Freeman, New York (1981)), the contents of which are incorporated herein by reference. […]

[4] = tested on: chicks with Aβ1-42-induced amnesia; assay: passive avoidance task in chicks with Aβ-induced amnesia; assay type: in vivo, chick; conditions: for protection against amyloid-beta induced memory loss: chick
Procedure: FIG. 2 The effect of Ac-rER on memory in chicks with Aβ-induced amnesia. Chicks were injected 2×ip, 1 mg/100 gr bw, with Ac-rER, 6 hr and 12 hr pre-training. Aβ1-42 (2 μg/hemisphere) was injected ic 60 min pre-training. Chicks were tested 24 hr later. […] Each chick was trained and tested only once and differences between groups were tested for statistical significance by G-test (Sokal, and Rohlf, 1995).
Commercially obtained Ross Chunky eggs were incubated and hatched in brooders and held until 16±6 hours old. Chicks were placed in pairs in small aluminium pens. Following an equilibration period of an hour, the chicks were pretrained and trained essentially as described by Lossner and Rose (J. Neurochem. 41, 1357-1363 (1983), the contents of which are incorporated herein by reference). Pretraining involved three 10 s presentations of a small (2 mm diameter) white bead, at approximately 5 minute intervals. […] Two training techniques were used: “strong” and “weak” training. In both, 5 to 10 minutes after the last pre-training trial, chicks were trained by a 10 s presentation of a 4 mm diameter chrome bead, which had been dipped in the bitter-tasting methylanthranilate. Control chicks pecked at a water-coated or dry bead. In the “strong” version of the task, 100% methylanthranilate was used. In the “weak” version, 10% methylanthranilate was used. Chicks spontaneously pecked at the training or control beads within 20 s. Chicks that pecked at the bitter bead evinced a disgust reaction and would not normally peck at a similar, but dry bead for some hours subsequently. At various times following training chicks were tested, by offering them a dry 4 mm diameter chrome bead, followed 10 minutes later by a small (2 mm diameter) white bead, each for 20 to 30 s. Animals were tested by an experimenter blind as to which treatment each chick had received. […] Recall is calculated as a percent avoidance score (percentage of chicks which avoid the chrome bead) and as a discrimination score (percentage of chicks which avoid the chrome but peck at the white bead). […]

[5] = tested on: chicks with Anisomycin-induced amnesia; assay: passive avoidance task, Anisomycin-induced amnesia in chicks; assay type: in vivo, chick; conditions: 8 μg/hemisphere ic pre-training; Anisomycin 125 nmol/hemisphere ic immediately post-training; tested 3 hr post training
Procedure: FIG. 7 Effect of Ac-rER on Anisomycin-induced amnesia in chicks. Chicks were injected ic with 8 μg/hemisphere of Ac-rER 60 min pre-training followed by ic injection of Anisomycin (125 nmol/hemisphere). immediately post-training. Controls were injected with saline. Chicks were tested 3 hr post training. […] Each chick was trained and tested only once and differences between groups were tested for statistical significance by G-test (Sokal, and Rohlf, 1995).
Commercially obtained Ross Chunky eggs were incubated and hatched in brooders and held until 16±6 hours old. Chicks were placed in pairs in small aluminium pens. Following an equilibration period of an hour, the chicks were pretrained and trained essentially as described by Lossner and Rose (J. Neurochem. 41, 1357-1363 (1983), the contents of which are incorporated herein by reference). Pretraining involved three 10 s presentations of a small (2 mm diameter) white bead, at approximately 5 minute intervals. […] Two training techniques were used: “strong” and “weak” training. […] Recall is calculated as a percent avoidance score (percentage of chicks which avoid the chrome bead) and as a discrimination score (percentage of chicks which avoid the chrome but peck at the white bead). […]

Compound	time prior to training at which injection is still effective (maximum), unprotected L-form [1]	effect on MK801-induced amnesia, FIG. 8 [2]	performance on the weak training task, FIG. 3 ([3]; 2×ip injections, 1 mg/100 gr bw, 30 min and 6 hr pre-training, tested 24 hr later, control Ac-REr)	bio-activity as a cognitive enhancer [3]	bio-activity as a cognitive enhancer ([3]; listed as Ac-RER)	dose sufficient to enhance memory, FIG. 5 ([3]; ip 60 min pre-training, tested 24 after)	time prior to training at which injection still acts as cognitive enhancer and neuroprotective agent ([3]; ip, FIGS. 2 and 3)	persistence of effect: time before training at which peptide is effective, FIG. 6 ([3]; single ip injection of 1-2 mg/100 g bw, tested 24 hr later)	time of administration before training at which peptide is most effective, FIG. 6 ([3]; single ip injection, weak training)	memory retention (percent showing avoidance and discrimination), FIG. 1 ([3]; tested 24 after)	memory retention (percent showing avoidance and discrimination), FIG. 1 ([3]; tested 24 after, listed as Ac-ReR)	memory retention in Aβ-induced amnesia, FIG. 2 ([4]; 2×ip, 1 mg/100 gr bw, 6 hr and 12 hr pre-training, Aβ1-42 2 μg/hemisphere ic 60 min pre-training, tested 24 hr later)	protection against amyloid-beta induced memory loss [4]	protection against amyloid-beta induced memory loss ([4]; listed as Ac-RER)	effect on Anisomycin-induced amnesia, FIG. 7 [5]
Arg-Glu-Arg [RER]	≤ 3 h	–	–	–	–	–	–	–	–	–	–	–	–	–	–
CC(=O)NC(CCCNC(=N)N)C(=O)NC(CCC(=O)O)C(=O)N[C@@H](CCCNC(=N)N)C(N)=O (stereo partly drawn) [Ac-rER] (Ac-[ξR]-[ξE]-Arg-NH2)	–	prevents either of these drugs from inducing amnesia	significantly enhanced; also recorded: effective when injected peripherally	active as a cognitive enhancer	effective as a cognitive enhancer	1 mg per 100 g body weight	up to 12 hr	≤ 12 h	4 h	enhances memory retention to the levels observed in the chick treated with the Ac-L/L/L/ form	significant but lesser effects	restores cognitive function and prevents memory loss	protecting against amyloid-beta induced memory loss	protecting against amyloid-beta	prevents either of these drugs from inducing amnesia
